# Assay results published in patent US20210244737A1, “COMPOSITIONS FOR TREATING MELANOMA” (INSERM (INSTITUT NATIONAL DE LA SANTÉ ET DE LA RECHERCHE …, priority 2018, published 2021).
# What was measured:
# [1] = target: T1, DDR2 (Homo sapiens, UniProt Q16832); experiment: Type I collagen-mediated DDR2 tyrosine phosphorylation in melanoma cells (immunoblot); format: cell-based; conditions: data not shown
# T1 sequence (Q16832 22-855): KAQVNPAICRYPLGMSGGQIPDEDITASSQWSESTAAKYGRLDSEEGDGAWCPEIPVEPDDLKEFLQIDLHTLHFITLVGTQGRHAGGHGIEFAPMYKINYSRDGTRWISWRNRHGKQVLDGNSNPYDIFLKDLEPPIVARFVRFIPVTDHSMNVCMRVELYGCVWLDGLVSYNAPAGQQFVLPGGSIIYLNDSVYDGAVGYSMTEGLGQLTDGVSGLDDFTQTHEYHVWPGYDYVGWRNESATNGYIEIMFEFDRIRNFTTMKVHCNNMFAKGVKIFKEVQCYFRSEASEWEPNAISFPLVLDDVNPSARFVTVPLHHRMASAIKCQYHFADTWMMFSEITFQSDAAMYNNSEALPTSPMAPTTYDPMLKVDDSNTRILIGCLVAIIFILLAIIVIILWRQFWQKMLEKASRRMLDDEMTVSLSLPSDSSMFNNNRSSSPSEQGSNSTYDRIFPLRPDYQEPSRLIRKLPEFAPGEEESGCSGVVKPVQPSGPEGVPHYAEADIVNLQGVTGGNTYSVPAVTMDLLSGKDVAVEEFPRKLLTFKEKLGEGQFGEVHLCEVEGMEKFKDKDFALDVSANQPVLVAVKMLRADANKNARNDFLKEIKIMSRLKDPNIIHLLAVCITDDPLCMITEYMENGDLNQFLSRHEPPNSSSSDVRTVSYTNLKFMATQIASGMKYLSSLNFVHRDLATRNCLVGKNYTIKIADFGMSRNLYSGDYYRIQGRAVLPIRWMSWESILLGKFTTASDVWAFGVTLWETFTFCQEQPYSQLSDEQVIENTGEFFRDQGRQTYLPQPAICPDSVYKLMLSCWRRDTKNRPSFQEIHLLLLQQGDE
# [2] = test system: 1205Lu melanoma cells; experiment: Apoptosis by flow cytometry (AnnexinV-FITC/PI) of cells on MAF-derived ECM; format: cell-based; conditions: 10 μM Imatinib in presence of 2 μM Vemurafenib, 48 h, 1205Lu on 3D-ECM
# Procedure: Cell cycle profiles were determined by flow cytometry analysis of propidium iodide (PI)-stained cells. Melanoma cells cultured onto cell-derived matrices and treated with or without 2 μM vemurafenib for 48 h were washed, fixed in 80% ethanol and incubated at −20° C. for 24 h. Cells were then stained for 20 min at 37° C. in buffer containing 40 μg/ml PI and 20 μg/ml ribonuclease A from bovine pancreas. Cell cycle profiles were collected on a FACS Canto. Cell death was evaluated by flow cytometry following staining with AnnexinV/PI (eBioscience).
# [3] = test system: 1205Lu melanoma cells; conditions: Kaplan-Meier, 1205Lu melanoma-bearing mice
# Procedure: Mouse experiments were carried out in accordance with the Institutional Animal Care and the local ethical committee. […] Tumor was measured by caliper and the volume was calculated using the formula: V=tumor width×tumor length 2×0.5. When tumor reached 100 mm^3, mice were randomly grouped into control and test groups. […] Mice in control group were treated with vehicle. […] After animal sacrifice tumors were dissected, fixed in formalin and embedded in paraffin.
Compound,type I collagen-mediated DDR2 tyrosine phosphorylation [1],apoptosis (AnnexinV/PI cytometry) [2],Median time to progression [3]
"Cc1ccc(NC(=O)c2ccc(CN3CCN(C)CC3)cc2)cc1Nc1nccc(-c2cccnc2)n1 [Imatinib, (4-(4-methylpiperazin-l-yhnethyl)-N-[4-methyl-3-(4-pyridin-3-yl)pyrimidin-2-ylamino)phenyl-benzamide)]",efficiently abrogated,Induction of apoptosis,
CCCS(=O)(=O)Nc1ccc(F)c(C(=O)c2c[nH]c3ncc(-c4ccc(Cl)cc4)cc23)c1F [Vemurafenib],,,36 days
